The source of these data is ChEMBL document CHEMBL6071176, “Development of Phloroglucinol-Linked Tris-Quaternary Ammonium Salt Antimicrobial Peptide Mimics with Low Cytotoxicity and Broad-Spectrum Antibacterial Activity” (J Med Chem, 2024).

Data set [1] relates to Staphylococcus aureus. Description: Antibacterial activity against methicillin-resistant Staphylococcus aureus assessed as inhibition of bacterial growth measured after 6 hrs in presence of plasma. The format is functional, organism-based.
Data set [2] deals with Staphylococcus aureus. Description: Bactericidal activity against Staphylococcus aureus assessed as bacterial killing in presence of Mueller-Hinton broth. The data set is classed as functional, organism-based.
In data set [3] the test system is Staphylococcus aureus. The data set can be described thus: Anti-microbial activity against Staphylococcus aureus assessed as bacterial growth inhibition in presence of LPS (exogenous bacterial cell membrane component) measured after 18 hrs. The format is functional, organism-based.
A further data set relates to Cell membrane. Description: Induction of Cytoplasmic membrane depolarization in Staphylococcus aureus assessed as increase in fluorescence intensity measured at 6 times of MIC measured after 4 hrs by DiSC3(5) dye-based fluorescence assay. The format is subcellular.
For data set [4], the system named is Staphylococcus aureus. Description: Anti-biofilim activity against Staphylococcus aureus biofilm assessed bacterial survival rate at 8 ug/ml measured after 24 hrs incubation. The format is functional.
The next data set relates to Escherichia coli. Description: Bactericidal activity against early exponential phase Escherichia coli assessed as bacterial killing at 3 ug/ml incubated for 12 hrs by time-kill assay. The format is functional, organism-based. As to conditions: dose 3.0 µg/ml.
Data set [5] has as its system Stenotrophomonas maltophilia. The data set can be described thus: Antimicrobial activity against Stenotrophomonas maltophilia assessed as inhibition of growth incubated for 18 hrs by CLSI guidelines based assay. The format is functional.
Data set [6] can be described thus: Toxicity in female SPF Kunming mouse assessed as pathological changes in heart at 200 mg/kg/day, sc measured after 24 hrs by hematoxylin and eosin staining based assay. The data set is classed as organism-based. As to conditions: in vivo.
In data set [7] the test system is Staphylococcus aureus. The data set can be described thus: Anti-biofilim activity against Staphylococcus aureus biofilm assessed bacterial survival rate at 32 ug/ml measured after 24 hrs incubation. The data set is classed as functional.
Data set [8] is described as follows: Toxicity in female SPF Kunming mouse assessed as change in WBC count at 20 mg/kg/day, ip measured after 24 hrs. The format is organism-based. As to conditions: in vivo.
Data set [9] relates to Staphylococcus aureus. The data set can be described thus: Induction of ROS level in Staphylococcus aureus assessed as increase in intracellular ROS level at 0.125 to 0.5 ug/ml measured after 4.5 hrs by ROS-sensitive fluorescent probe DCF-DA staining based assay. As to conditions: dose 0.125-0.5 µg/ml. The data set is classed as functional, organism-based.
Data set [10] can be described thus: Hemolytic activity in sheep red blood cells measured after 1 hr incubation. The data set is classed as toxicity, cell-based, Ovis aries, Erythrocyte.
Data set [11] in a line: Hemolytic activity in Red blood cells (unknown origin) assessed as hemolytic rate at 1280 ug/ml relative to control. The data set is classed as toxicity, cell-based, Erythrocyte. As to conditions: at 1280 µg/mL, read-out: Activity.
The subject of data set [12] is Staphylococcus aureus. The data set can be described thus: In vivo antibacterial activity against methicillin-resistant Staphylococcus aureus subcutaneously infected in SPF female Kunming mouse model assessed as reduction wound at 5 mg/kg/day injected into blister after 6 hrs of infection measured after 6 consecutive treatments. The format is functional.
Data set [13] deals with Staphylococcus aureus. The data set can be described thus: Down-regulation of aspartate/ornithine carbamoyltransferase in Staphylococcus aureus at 0.25 ug/ml and incubated for 4 hrs by Transcriptome analysis. The data set is classed as functional, organism-based. As to conditions: dose 0.25 µg/ml.
The nature of data set [14]: Toxicity in female SPF Kunming mouse assessed as change in UREA level at 20 mg/kg/day, ip measured after 24 hrs. The format is organism-based. As to conditions: in vivo.
Data set [15] relates to Staphylococcus aureus. Description: Bactericidal activity against Staphylococcus aureus assessed as bacterial killing in presence of 50% plasma. The data set is classed as functional, organism-based.
Data set [16] relates to Staphylococcus aureus. Description: Antibacterial activity against NDM-1 gene-resistant Staphylococcus aureus assessed as inhibition of bacterial growth incubated for 18 hrs by CLSI guidelines based assay. The format is functional.
Data set [17] in a line: Toxicity in female SPF Kunming mouse assessed as pathological changes in liver at 200 mg/kg/day, sc measured after 24 hrs by hematoxylin and eosin staining based assay. The format is organism-based. As to conditions: in vivo.
Data set [18] can be described thus: Cytotoxicity against human Gastric mucosal cells measured assessed as cell morphology at 32 ug/ml measured after 24 hrs by Electron scanning microscopy. The data set is classed as toxicity, cell-based. As to conditions: dose 32 µg/ml.
Data set [19] has as its system Staphylococcus aureus. The data set can be described thus: Anti-biofilim activity against Staphylococcus aureus biofilm assessed bio-film thickness at 32 ug/ml measured after 24 hrs incubation by SYTO 9 staining based […] laser scanning microscopy (CLSM) (reference value: 29.5 microm). The data set is classed as functional. As to conditions: dose 32 µg/ml.
In data set [20] the test system is Staphylococcus aureus. Description: In vivo antibacterial activity against methicillin-resistant Staphylococcus aureus subcutaneously infected in SPF female Kunming mouse model assessed as improvement in inflammatory cell infiltration in skin at 5 to 10 mg/kg/day injected into blister after 6 hrs of infection measured after 6 consecutive treatments by H and E staining based assay. The format is functional, organism-based. As to conditions: dose 5-10 mg/kg/day, route […].

Molecules are shown by their SMILES. Active and inactive are the calls of the source. The rule behind the calls is not given here.

`CCCCCCCC[N+](C)(C)CCCCOc1cc(OCCCC[N+](C)(C)CCCCCCCC)cc(OCCCC[N+](C)(C)CCCCCCCC)c1.[Br-].[Br-].[Br-]`: the outcome with Staphylococcus aureus [1], in the data set on Staphylococcus aureus [2], with Cell membrane, with Escherichia coli, with Staphylococcus aureus [9] and in the data set on Staphylococcus aureus [13] was Active. The result with Staphylococcus aureus [15] and in the data set on Staphylococcus aureus [20] was Active. In the data set on Staphylococcus aureus [3], the result was inactive. The molecule also gave a survival at 8 µg/mL in the data set on Staphylococcus aureus [4] of 0.61%. Further, in [5], the minimum inhibitory concentration (MIC) (usually the lowest concentration found to suppress growth) came out at 2 µg/mL. Further, the Activity entry is given as “Non-Toxic” in [6]; “Non-Toxic” in data set [8]; 251188.6 CFU with Staphylococcus aureus [12]; “Non-Toxic” in [14]; “Non-Toxic” in data set [17]; “Non-Toxic” in [18]. The Activity in the data set with Staphylococcus aureus [19] stood at 14.7 um. In the data set on Staphylococcus aureus [7], this molecule gave a survival at 32 µg/mL of 0.002%. Further, the concentration for 50% haemolysis (HC50) (commonly the concentration giving 50% haemolysis) at 1 h in data set [10] was greater than 1280 µg/mL. Besides, in data set [11], the hemolysis at 1280 ug/ml was less than 5%. The MIC90 – broadly, an inhibitory concentration at the 90% level, which refers to growth in some studies and to a panel of isolates in others – in the data set with Staphylococcus aureus [16] worked out at 2 µg/mL.
